The values below come from US6552022B1, “Benzamide derivatives and their use as ApoB-100 secretion inhibitors” (SmithKline Beecham Corporation, priority 1998, dated 2003).

For orientation: melting point means the temperature of the solid-liquid transition. Take `CC(C)c1ccc(-c2ccccc2C(=O)Nc2ccc(N3CCN(Cc4cccc(C#N)c4)CC3)cc2)cc1`: the melting point lay within 133 to 135 °C.
Under `Cc1ccc(-c2ccc(C(F)(F)F)cc2)c(C(=O)Nc2ccc(N3CCN(Cc4cccc(C#N)c4)CC3)cc2)c1` stands 120 to 124 °C; under `COc1ccc(-c2ccc(C(F)(F)F)cc2)c(C(=O)Nc2ccc(N3CCN(Cc4cccc(C#N)c4)CC3)cc2)c1`, 151 to 155 °C.
`CCc1ccc(-c2ccccc2C(=O)Nc2ccc(N3CCN(Cc4cccc(C#N)c4)CC3)cc2)cc1` yielded a melting point of 118 to 122 °C.
For `COc1ccc(-c2ccccc2C(=O)Nc2ccc(N3CCN(Cc4cccc(C#N)c4)CC3)cc2)cc1` the value was 124 to 128 °C; for `N#Cc1cccc(CN2CCN(c3ccc(NC(=O)c4ccccc4-c4cccc(C(F)(F)F)c4)cc3)CC2)c1`, 117 to 121 °C.
For the compound `Cc1ccc(-c2ccccc2C(=O)Nc2ccc(N3CCN(Cc4cccc(C#N)c4)CC3)cc2)cc1C`, the melting point lay in the range of 140 to 144 °C.
On to `Cc1ccc(-c2ccccc2C(=O)Nc2ccc(N3CCN(Cc4cccc(C#N)c4)CC3)cc2)c(C)c1`, for which the melting point fell in the range of 72 to 76 °C.
On to `COc1ccc(-c2ccccc2C(=O)Nc2ccc(N3CCN(Cc4cccc(C#N)c4)CC3)cc2)cc1OC`, for which the melting point fell in the range of 116 to 120 °C.
`O=C(Nc1ccc(N2CCN(Cc3ccncc3)CC2)cc1)c1ccccc1-c1ccc(C(F)(F)F)cc1`: the melting point is 194 to 196 °C.
In the case of `COc1cccc(CN2CCN(c3ccc(NC(=O)c4ccccc4-c4ccc(C(F)(F)F)cc4)cc3)CC2)c1` (hydrate or solvate), the melting point is 168 to 170 °C.
In the case of `O=C(Nc1ccc(N2CCN(Cc3cccc(F)c3)CC2)cc1)c1ccccc1-c1ccc(C(F)(F)F)cc1` (hydrate or solvate), the melting point is 189 to 190.5 °C.
Regarding `O=C(Nc1ccc(N2CCN(Cc3ccccn3)CC2)cc1)c1ccccc1-c1ccc(C(F)(F)F)cc1` (hydrate or solvate), the melting point is 168 to 170 °C.
`N#Cc1cccc(CN2CCN(c3ccc(NC(=O)c4ccccc4-c4ccccc4)cc3)CC2)c1` (hydrate or solvate) [Example 11, Biphenyl-2-carboxylic acid (4-[4-(3-cyano-benzyl)-piperazin-1-yl]-phenyl]-amide] had a melting point of 169 to 171 °C.
In turn, `N#Cc1cccc(CN2CCN(c3ccc(NC(=O)c4ccccc4Oc4ccccc4)cc3)CC2)c1` (hydrate or solvate) [Example 14, N-[4-[4-(3-Cyano-benzyl)-piperazin-1-yl]-phenyl]-2-phenoxy-benzamide] had a melting point of 133 to 134 °C.
For `N#Cc1cccc(CN2CCN(c3ccc(NC(=O)c4ccccc4-c4ncc(-c5ccccc5)o4)cc3)CC2)c1` (hydrate or solvate) [Example 15, N-[4-[4-(3-Cyano-benzyl)-piperazin-1-yl]-phenyl]-2-(5-phenyl-oxazol-2-yl)-benzamide], the melting point lay in the range of 209 to 211 °C.
As for `O=C(Nc1ccc(N2CCN(Cc3nccs3)CC2)cc1)c1ccccc1-c1ccc(C(F)(F)F)cc1` (hydrate or solvate) [Example 59, 4′-Trifluoromethyl-biphenyl-2-carboxylic acid [4-(4-thiazol-2-ylmethyl-piperazin-1-yl)-phenyl]-amide], the melting point was 187 to 189 °C.
For `CC(C)c1ccc(-c2cc(Cl)ccc2C(=O)Nc2ccc(N3CCN(Cc4cccc(C#N)c4)CC3)cc2)cc1` [Example 7, 5-Chloro-4′-isopropyl-biphenyl-2-carboxylic acid [4-[4-(3-cyano-benzyl)-piperazin-1-yl]-phenyl]-amide] the value was 188 to 190 °C; for `COc1cccc(C(=O)Nc2ccc(N3CCN(Cc4cccc(C#N)c4)CC3)cc2)c1-c1ccc(C(F)(F)F)cc1` [Example 8, 6-Methoxy-4′-trifluoromethyl-biphenyl-2-carboxylic acid [4-[4-(3-cyano-benzyl)-piperazin-1-yl]-phenyl]-amide], 215 to 217 °C.
In turn, `Cc1ccc(C(=O)Nc2ccc(N3CCN(Cc4cccc(C#N)c4)CC3)cc2)c(-c2ccc(C(F)(F)F)cc2)c1` [Example 9, 5-Methyl-4′-trifluoromethyl-biphenyl-2-carboxylic acid [4-[4-(3-cyano-benzyl)-piperazin-1-yl]-phenyl]-amide] yielded a melting point of 166 to 168 °C.
`N#Cc1cccc(CN2CCN(c3ccc(NC(=O)c4ccc(Cl)cc4-c4ccc(C(F)(F)F)cc4)cc3)CC2)c1` [Example 10, 5-Chloro-4′-trifluoromethyl-biphenyl-2-carboxylic acid [4-[4-(3-cyano-benzyl)-piperazin-1-yl]-phenyl]-amide] came in with a melting point of 164 to 165 °C.
Under `COc1ccc(C(=O)Nc2ccc(N3CCN(Cc4cccc(C#N)c4)CC3)cc2)c(-c2ccccc2)c1` [Example 12, 5-Methoxy-biphenyl-2-carboxylic acid [4-[4-(3-cyano-benzyl)-piperazin-1-yl]-phenyl]-amide] stands 159 to 161 °C; under `N#Cc1cccc(CN2CCN(c3ccc(NC(=O)c4ccccc4-c4ccc(F)cc4)cc3)CC2)c1` [Example 23, 4′-Fluoro-biphenyl-2-carboxylic acid [4-[4-(3-cyano-benzyl)-piperazin-1-yl]-phenyl]-amide], 200 to 202 °C.
In turn, `N#Cc1cccc(CN2CCN(c3ccc(NC(=O)c4ccccc4OCc4ccc(C(F)(F)F)cc4)cc3)CC2)c1` [Example 27, N-[4-[4-(3-Cyano-benzyl)-piperazin-1-yl]-phenyl]-2-(4-trifluoromethyl-benzyloxy)-benzamide] showed a melting point of 190 to 191 °C.
`COc1cccc(C(=O)Nc2ccc(N3CCN(Cc4cccc(C#N)c4)CC3)cc2)c1OCc1ccc(C(F)(F)F)cc1` [Example 28, N-[4-[4-(3-Cyano-benzyl)-piperazin-1-yl]-phenyl]-3-methoxy-2-(4-trifluoromethyl-benzyloxy)-benzamide]: the melting point lay in the range of 118 to 119.5 °C.
For `COc1cccc(C(=O)Nc2ccc(N3CCN(Cc4cccc(C#N)c4)CC3)cc2)c1OCc1ccc(F)cc1` [Example 29, N-[4-[4-(3-Cyano-benzyl)-piperazin-1-yl]-phenyl]-2-(4-fluoro-benzyloxy)-3-methoxy-benzamide] the value was 118 to 120 °C.
In the case of `COc1cccc(C(=O)Nc2ccc(N3CCN(Cc4cccc(C#N)c4)CC3)cc2)c1OCCc1ccccc1` [Example 30, N-[4-[4-(3-Cyano-benzyl)-piperazin-1-yl]-phenyl]-3-methoxy-2-phenethyloxy-benzamide], the melting point lay within 140 to 142 °C.
Under `COc1cccc(C(=O)Nc2ccc(N3CCN(Cc4cccc(C#N)c4)CC3)cc2)c1OCCC1CCCCC1` [Example 31, N-[4-[4-(3-Cyano-benzyl)-piperazin-1-yl]-phenyl]-2-(2-cyclohexyl-ethoxy)-3-methoxy-benzamide] stands 102 to 104 °C.
`N#Cc1cccc(CN2CCN(c3ccc(NC(=O)c4ccccc4OCCC4CCCCC4)cc3)CC2)c1` [Example 32, N-[4-[4-(3-Cyano-benzyl)-piperazin-1-yl]-phenyl]-2-(2-cyclohexyl-ethoxy)-benzamide] registered a melting point of 119 to 121 °C.
Regarding `COc1cccc(C(=O)Nc2ccc(N3CCN(Cc4cccc(C#N)c4)CC3)cc2)c1OCCCc1ccccc1` [Example 33, N-[4-[4-(3-Cyano-benzyl)-piperazin-1-yl]-phenyl]-3-methoxy-2-(3-phenyl-propoxy)-benzamide], the melting point was in the range of 134 to 136 °C.
As for `N#Cc1cccc(CN2CCN(c3cccc(NC(=O)c4ccccc4-c4ccc(C(F)(F)F)cc4)c3)CC2)c1` [Example 36, 4′-Trifluoromethyl-biphenyl-2-carboxylic Acid [3-[4-(3-cyano-benzyl)-piperazin-1-yl]-phenyl]-amide], the melting point fell in the range of 170 to 172 °C.
The compound `COc1ccc(-c2ccc(C(C)C)cc2)c(C(=O)Nc2ccc(N3CCN(CC(N)=O)CC3)cc2)c1` [Example 38, 4′-Isopropyl-4-methoxy-biphenyl-2-carboxylic Acid [4-(4-carbamoylmethyl-piperazin-1-yl)-phenyl]-amide] yielded a melting point of 207 to 209 °C.
For `Cc1cccc(C(=O)Nc2ccc(N3CCN(CC(N)=O)CC3)cc2)c1-c1ccc(C(F)(F)F)cc1` [Example 40, 6-Methyl-4′-trifluoromethyl-biphenyl-2-carboxylic acid [4-(4-carbamoylmethyl-piperazin-1-yl)-phenyl]-amide], the melting point fell in the range of 196 to 198 °C.
The compound `CCOC(=O)CN1CCN(c2ccc(NC(=O)c3ccccc3-c3ccc(C(F)(F)F)cc3)cc2)CC1` [Example 42, 4′-Trifluoromethyl-biphenyl-2-carboxylic acid [4-(4-ethoxycarbonylmethyl-piperazin-1-yl)-phenyl)-amide] came in with a melting point of 167 to 169 °C.
In turn, `CCOCCN1CCN(c2ccc(NC(=O)c3ccccc3-c3ccc(C(F)(F)F)cc3)cc2)CC1` [Example 43, 4′-Trifluoromethyl-biphenyl-2-carboxylic acid [4-(4-(2-ethoxy-ethyl)-piperazin-1-yl]-phenyl]-amide] gave a melting point of 176 to 178 °C.
Compound `O=C(Nc1ccc(N2CCN(CCCO)CC2)cc1)c1ccccc1-c1ccc(C(F)(F)F)cc1` [Example 44, 4′-Trifluoromethyl-biphenyl-2-carboxylic acid [4-(4-(3-hydroxy-propyl)-piperazin-1-yl]-phenyl]-amide] displayed a melting point of 208 to 210 °C.
For `O=C(Nc1ccc(N2CCN(Cc3ccc4c(c3)OCO4)CC2)cc1)c1ccccc1-c1ccc(C(F)(F)F)cc1` [Example 48, 4′-Trifluoromethyl-biphenyl-2-carboxylic acid [4-(4-(3,4-methylenedioxy-benzyl)-piperazin-1-yl)-phenyl]-amide] the value was 189 to 191 °C; for `NC(=O)c1cccc(CN2CCN(c3ccc(NC(=O)c4ccccc4-c4ccc(C(F)(F)F)cc4)cc3)CC2)c1` [Example 50, 4′-Trifluoromethyl-biphenyl-2-carboxylic acid {4-[4-(3-carbamoyl-benzyl)-piperazin-1-yl]-phenyl)amide], 199 to 201 °C.
Consider `O=C(Nc1ccc(N2CCN(Cc3ccc(F)cc3)CC2)cc1)c1ccccc1-c1ccc(C(F)(F)F)cc1` [Example 52, 4′-Trifluoromethyl-biphenyl-2-carboxylic acid [4-[4-(4-fluoro-benzyl)-piperazin-1-yl]-phenyl]-amide], for which the melting point is 198 to 200 °C.
